We go through 2 compounds from ChEMBL document CHEMBL2417521, “Class A G-protein-coupled receptor (GPCR) dimers and bivalent ligands” (J Med Chem, 2013).

In one assay the test system is HEK293. Kind of assay: Selectivity ratio of EC50 for mu/kappa opioid receptor in HEK293 cells to EC50 for mu opioid receptor in HEK293 cells. The assay is classed as cell-based. To be noted: Homo sapiens.
For assay [1], the target named is Dopamine receptor D2L/neurotensin receptor NTS1 (Homo sapiens) (UniProt P14416+P30989). Kind of assay: Ratio of Ki for D2L/NTS1 (unknown origin) expressed in HEK293 cell membrane in presence of neurotensin to Ki for D2L/NTS1 (unknown origin) expressed in HEK293 cell membrane in absence of neurotensin. The assay is classed as cell-based.

As to `O=C(N[C@@H]1CC[C@@]2(O)[C@H]3Cc4ccc(O)c5c4[C@@]2(CCN3CC2CC2)[C@H]1O5)c1ccc2ccccc2c1`, the Ratio EC50 in the assay with HEK293 was determined as 1000.

Regarding `CCCN(CCCCNC(=O)c1cnn2ccccc12)C1Cc2ccccc2C1`, the Ratio Ki in assay [1] worked out at 34.
